Laboratory results from patent US20240344241A1, “PROTEINACEOUS MOLECULES AND USES THEREFOR” (THE UNIVERSITY OF QUEENSLAND, priority 2021, published 2024).
Bridge positions count the residues as written; N and C are the ends. Peptide text beside a SMILES is read from it.

Assays:
human blood [1] = experiment: HEPTEM assay of blood samples from the ex vivo ECMO model; details: ECMO circuit, heparinase added
Protocol: (§1) The duration of effect for each treatment was also monitored by taking blood samples from the circuit over time and performing clotting assays (refer to FIG. 18). In ACT assays, a clotting time of more than 200 s was maintained for cyclic MCoFx7 over the course of the experiment (>300 s from 0.5 h-6 h).
(§2) Ex vivo ECMO circuits (Permanent Life Support [PLS] System, Maquet C P, Rastatt, Germany) consisted of a Quadrox D Oxygenator and ROTAFLOW centrifugal pump, both incorporated into a tubing set, with a tip-to-tip BIOLINE (albumin and heparin) coating. Initially, the PLS system was primed with Plasma-Lyte 148 and heated to 37.8° C. […] Inlet and outlet pressures between the membrane oxygenator were monitored using a silicone-based pressure transducer (Omega Engineering, Norwalk, CT, USA) and were recorded as the delta oxygenator pressure (P). […]
(§3) Activated clotting time (ACT) was measured in fresh whole blood using celite tubes with the Hemochron 401 coagulation analyzer (Soma Technology, Bloomfield, CT, USA). Whole blood clot formation was recorded by ROTEM® Thromboelastometry (Haemoview Diagnostics, Brisbane, Australia) using INTEM (contact factor-initiated coagulation) and HEPTEM (contact factor-initiated coagulation with heparinase) activating reagents according to the manufacturer's instructions.

[2] = tested on: human whole blood, intrinsic pathway (INTEM); experiment: Rotational thromboelastometry INTEM in human whole blood
Protocol: (§4) The anticoagulant activity of cyclic MCoFx7 was determined in human whole blood using two assays: activated clotting time (ACT) and rotational thromboelastometry (ROTEM). In ACT assays, the clotting time (y-axis) was increased in a dose-dependent manner from the control (124 s), reaching 223 s with 20 μM MCoFx7. […] Anticoagulant activity was verified by thromboelastometry (TEM) that was measured after activation of the intrinsic pathway (INTEM) (refer to FIG. 16). […] By comparison, a single concentration of cyclic [A25P]MCoFx7 (10 μM) produced a clotting time of 500 s, similar to cyclic MCoFx7 at 10 μM (469 s).
as §3

human blood [3] = experiment: ACT assay of blood samples from the ex vivo ECMO model; details: ECMO circuit, single dose 20 μM
Protocol: as §1, §2, §3

human whole blood = experiment: Activated clotting time (ACT) in human whole blood
Protocol: as §4, §3

human blood [4] = experiment: INTEM assay of blood samples from the ex vivo ECMO model; details: ECMO circuit, single dose 20 μM
Protocol: as §1, §2, §3

Human β-FXIIa [5] = target: T1, Human β-FXIIa (Homo sapiens, UniProt P00748); experiment: FXIIa competitive inhibition assay, fluorescent substrate Boc-QGR-MCA; type: biochemical; details: 0.5 nM FXIIa, 50 μM Boc-QGR-MCA; read-out: Ki for FXIIa, fluorescent substrate
T1 construct: Human β-FXIIa was obtained from Molecular Innovations, together with human FXa, human FXIa, human α-thrombin, and human plasma kallikrein; purchased Molecular Innovations; host or cells: purified from human plasma
Method in brief: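 Human β-FXIIa (10 nM) preincubated to equilibrium with serially diluted inhibitors at room temperature in Tris pH 8.0 with NaCl, CaCl2 and Triton X-100. Activity followed with 100 μM Ac-QRFR-pNA (KM 162 μM) at 405 nm, or for later variants 0.5 nM enzyme with 50 μM Boc-QGR-MCA (KM 187 μM) by fluorescence. Ki from Morrison fits.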

Human β-FXIIa [6] = target: T1, Human β-FXIIa; experiment: FXIIa competitive inhibition assay, colorimetric substrate Ac-QRFR-pNA; type: biochemical
Method in brief: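 Assays run three times in duplicate at pH 8.0 (Tris-HCl, NaCl, CaCl2, Triton X-100). Rates of pNA or MCA release after enzyme–inhibitor equilibration at room temperature were fitted by non-linear regression to the Morrison equation for Ki.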

[7] = tested on: clotting via the extrinsic pathway; experiment: Prothrombin time (PT) assay in human plasma; type: biochemical; details: at 10 μM
Description: (§5) Citrated, platelet-poor plasma samples from healthy adults were collected, prepared, and stored using previously established collection protocols, such as in Zdenek et al. (2019) Toxicol in Vitro, 58: 97-109.
(§6) Standard coagulation assays were used to determine the effect of the inhibitors on the clotting time of human plasma. Activated partial thromboplastin time (aPTT) uses a Kaolin reagent (clay) to activate the intrinsic/contact pathway of the coagulation cascade, whereas prothrombin time (PT) uses Neoplastine (lyophilized thromboplastin prepared from rabbit cerebral tissue) to activate the extrinsic/tissue-factor pathway of the coagulation cascade. A minor adjustment was made to both tests (addition of 25 μL inhibitor or buffer; refer to Table 17) to accommodate the addition of an inhibitor without changing the total volume (and therefore relative ratios of additives) of the assay. Concentrations of inhibitor are reported as the concentration at the point of incubation in the assay, i.e. not taking into account the addition of the start reagent (calcium for aPTT, or Neoplastine for PT).
(§7) Clotting time (seconds) of plasma was automatically measured using a STA-R Max® analyzer (Stago, Asnieres sur Seine, France). Measurements were conducted using a viscosity-based (mechanical) detection system, whereby opposing magnets oscillate a small metal spherical pellet inside the test cuvette (250 μL total volume) until a clot is formed. Dilution of the inhibitor in Owren-Koller (OK) buffer for dose-response curves was performed automatically by the machine. Reagents were kept at 15-19° C. in the machine during experimentation and otherwise stored at 4° C. All tests were performed in triplicate.

Rec. human matriptase = target: T2, Rec. human matriptase (Homo sapiens, UniProt Q9Y5Y6); experiment: Matriptase inhibition assay; type: biochemical
T2 construct: purchased R&D Systems
T2 sequence (Q9Y5Y6 615-855 limits assumed): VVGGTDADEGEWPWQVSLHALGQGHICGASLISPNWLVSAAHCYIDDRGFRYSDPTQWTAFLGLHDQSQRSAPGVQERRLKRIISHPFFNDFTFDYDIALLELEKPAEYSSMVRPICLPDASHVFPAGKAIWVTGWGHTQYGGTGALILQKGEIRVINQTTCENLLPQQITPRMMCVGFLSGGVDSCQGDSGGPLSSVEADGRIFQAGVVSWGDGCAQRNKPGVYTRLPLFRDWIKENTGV
Protocol: (§8) The activity of acyclic and cyclic MCoFx1-5 and analogues thereof was assessed in competitive inhibition assays, as previously described in Swedberg et al. (2016) J Med Chem, 59: 7287-7292. Human β-FXIIa was obtained from Molecular Innovations, together with human FXa, human FXIa, human α-thrombin, and human plasma kallikrein. Human cationic trypsin and human plasmin were obtained from Sigma-Aldrich, and recombinant human matriptase was sourced from R&D Systems. Recombinant human urokinase (uPA) and recombinant human tissue plasminogen activator (tPA) were expressed in Expi293 cells, as previously described in Li et al. (2019) Chembiochem, 20: 46-50. FXIIa inhibition assays were performed in clear, low-binding 96-well plates using 250 μL (final volume) of assay buffer (0.1 M Tris-HCl pH 8.0, 0.1 M NaCl, 10 mM CaCl2 and 0.005% Triton X-100). Inhibitors were serially diluted and incubated with 10 nM FXIIa at room temperature to reach equilibrium. After adding 100 μM Ac-QRFR-pNA substrate (KM=162 μM), enzymatic activity was measured by monitoring release of the pNA moiety using a TECAN infinite M1000 Pro plate reader (A=405 nm, reading interval, 10 s; assay time course, 7 min). Assays were conducted in three times in duplicate. Substrate kinetic constants (Michaelis-Menten) and inhibition constants (Morrison K) were determined by non-linear regression using Prism 7 (GraphPad). Selectivity assays with off-target proteases were performed in a similar way, except that different concentrations of enzyme and substrate were used, as indicated in Table 16. For assays using a fluorescent substrate (peptide-4-methylcoumaryl-7-amide, MCA), black low-binding 96-well plates were used and activity was measured using a TECAN infinite M1000 pro plate reader (λex 360 nm, λem 460 nm, reading interval, 30 s; assay time course, 5-30 min).

[8] = tested on: clotting via the intrinsic pathway; experiment: Activated partial thromboplastin time (aPTT) assay in human plasma; type: biochemical
Description: as §5, §6, §7

[9] = target: kallikrein-related peptidase 4 (KLK4) (Homo sapiens, UniProt Q9Y5K2); experiment: KLK4 competitive inhibition assay; type: biochemical
Protocol: The inhibitor variants were screened against FXIIa and three off-target proteases, trypsin, matriptase and kallikrein-related peptidase 4 (KLK4), in competitive inhibition assays using a single concentration of inhibitor that ranged from 1.25 nM (KLK4) to 25 nM (FXIIa).
The activity of acyclic and cyclic MCoFx1-5 and analogues thereof was assessed in competitive inhibition assays, as previously described in Swedberg et al. (2016) J Med Chem, 59: 7287-7292. Human β-FXIIa was obtained from Molecular Innovations, together with human FXa, human FXIa, human α-thrombin, and human plasma kallikrein. Human cationic trypsin and human plasmin were obtained from Sigma-Aldrich, and recombinant human matriptase was sourced from R&D Systems. […] After adding 100 μM Ac-QRFR-pNA substrate (KM=162 μM), enzymatic activity was measured by monitoring release of the pNA moiety using a TECAN infinite M1000 Pro plate reader (A=405 nm, reading interval, 10 s; assay time course, 7 min). […] Substrate kinetic constants (Michaelis-Menten) and inhibition constants (Morrison K) were determined by non-linear regression using Prism 7 (GraphPad). […] For assays using a fluorescent substrate (peptide-4-methylcoumaryl-7-amide, MCA), black low-binding 96-well plates were used and activity was measured using a TECAN infinite M1000 pro plate reader (λex 360 nm, λem 460 nm, reading interval, 30 s; assay time course, 5-30 min).

Human trypsin = target: T3, Human trypsin (Homo sapiens, UniProt P07477); experiment: Trypsin competitive inhibition assay; type: biochemical
T3 construct: purchased Sigma-Aldrich; host or cells: purified from human tissue
Protocol: as §8

T1 sequence (P00748 373-615 limits assumed, other chains not shown): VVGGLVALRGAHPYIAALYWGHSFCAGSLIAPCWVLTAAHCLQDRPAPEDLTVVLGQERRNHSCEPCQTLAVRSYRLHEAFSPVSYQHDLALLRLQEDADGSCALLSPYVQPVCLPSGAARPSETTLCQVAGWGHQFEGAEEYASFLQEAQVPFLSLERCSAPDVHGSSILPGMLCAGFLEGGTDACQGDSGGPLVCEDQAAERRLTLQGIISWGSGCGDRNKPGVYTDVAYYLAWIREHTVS
Chain of kallikrein-related peptidase 4 (KLK4) (Q9Y5K2 31-254): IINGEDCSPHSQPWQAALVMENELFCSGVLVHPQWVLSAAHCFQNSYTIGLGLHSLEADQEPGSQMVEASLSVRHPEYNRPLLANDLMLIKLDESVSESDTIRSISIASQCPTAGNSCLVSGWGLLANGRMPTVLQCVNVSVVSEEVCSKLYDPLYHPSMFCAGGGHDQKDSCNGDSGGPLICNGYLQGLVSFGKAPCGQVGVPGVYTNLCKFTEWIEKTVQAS

| Compound | HEPTEM anticoagulant activity (human blood [1]) | INTEM clotting time ([2]; 10 μM) [s] | INTEM clotting time ([2]; 20 μM) [s] | ACT clotting time (human blood [3]; from 0.5 h-6 h) [s] | ACT clotting time maintained over the course of the experiment (human blood [3]) | ACT clotting time versus therapeutic range (180-220 s) (human whole blood; 10 μM or 20 μM) | ACT clotting time (human whole blood; 20 μM, human whole blood) [s] | INTEM anticoagulant activity, duration (human blood [4]) | Ki (Human β-FXIIa [5]) [nM] | change in Ki for FXIIa compared to M (Human β-FXIIa [6]) | clotting time compared to control, PT assay [7] | Ki against matriptase (in words) (Rec. human matriptase) | fold change in activity for matriptase compared to M (Rec. human matriptase) | EC1.5× (concentration required to extend the clotting time by 50%) [8] [nM] | EC2× (doubling the clotting time) [8] [µM] | fold change in activity for KLK4 compared to M [9] | Ki against trypsin (in words) (Human trypsin) | fold change in activity for trypsin compared to M (Human trypsin) |
| --- | --- | --- | --- | --- | --- | --- | --- | --- | --- | --- | --- | --- | --- | --- | --- | --- | --- | --- |
| CC[C@H](C)[C@@H]1NC(=O)CNC(=O)CNC(=O)[C@H](CC(=O)O)NC(=O)[C@H](CO)NC(=O)CNC(=O)[C@H](CO)NC(=O)CNC(=O)[C@@H]2CSSC[C@@H]3NC(=O)[C@H](CC(=O)O)NC(=O)[C@H](CO)NC(=O)[C@H](CC(=O)O)NC(=O)[C@H](CCCNC(=N)N)NC(=O)[C@H](CCCNC(=N)N)NC(=O)[C@@H]4CSSC[C@H](NC(=O)[C@H]([C@@H](C)CC)NC(=O)[C@H](CSSC[C@H](NC1=O)C(=O)N1CCC[C@H]1C(=O)N[C@@H](CCCNC(=N)N)C(=O)N[C@@H]([C@@H](C)CC)C(=O)NCC(=O)N[C@@H](CCCNC(=N)N)C(=O)N[C@@H](CC(C)C)C(=O)N4)NC(=O)[C@H](C)NC(=O)CNC(=O)[C@@H]1CCCN1C3=O)C(=O)N[C@@H](CCCNC(=N)N)C(=O)N[C@@H](C)C(=O)N[C@@H]([C@@H](C)O)C(=O)N[C@@H](CCCNC(=N)N)C(=O)N[C@@H](Cc1ccccc1)C(=O)N2 [Cyclic MCoFx7] (cyclo(ACICRATRFCGSGSDGGICPRIGRLCRRDSDCPG); disulfide 2-19, 4-26, 10-32) | independent of heparin | 469 | 521 | > 300 | more than 200 s | within the therapeutic range | 223 | anticoagulant activity was maintained for 6 h | 0.064 | – | – | – | – | – | – | – | – | – |
| NH2-RVCPR[4-F-Phe]EKKCRRDSDCPGACICRGNGYCG-OH (RVCPRXEKKCRRDSDCPGACICRGNGYCG; 4-F-Phe non-natural residue; MOD_RES 6 4-fluoro-L-phenylalanine) [Peptide 1] | – | – | – | – | – | – | – | – | – | three-fold | No effect on clotting time | in the micromolar range | 9,650 fold | 840 | 2.9 | > 100,000 fold | in the micromolar range | 7,350 fold |
